Assays:
Assay type in all cases: cell-based
[1] = test system: additional neuroblastoma cell lines with different genetic backgrounds; assay: Neurite outgrowth in multiple neuroblastoma cell lines; settings: 25 nM miRNA mimic, 5 days, among the top 5 miRNAs
Method: (§1) FIG. 3A-3G. Characterization of the effect of the top 5 neurite-inducing miRNA mimics on cell differentiation and growth in multiple neuroblastoma cell lines. (A-B) Effects of the identified top 5 miRNA mimics on neurite outgrowth. BE(2)-C cells were transfected with 25 nM miRNA mimics or control for 4 days, and relative neurite lengths were quantified as above. Shown are representative cell images analyzed to define neurite and cell body areas (A) and neurite length quantifications (B). (C) Effects of the 5 miRNA mimics on expression of differentiation markers. BE(2)-C cells were transfected with 25 nM of the indicated miRNA mimics or control, and proteins levels were examined after 4 days. (D) Effects of the 5 miRNA mimics on cell proliferation rate. (E) Effect of the 5 miRNAs on neurite outgrowth in multiple cell lines. Cells were transfected with 25 nM miRNA mimics or control, and neurite lengths were quantified as above after 5 days. (F-G) Effects of miR-506-3p (F) and miR-124-3p (G) mimics on expression of differentiation markers in multiple cell lines. *, p<0.05; **, p<0.01; ***, p<0.001; **** , p<0.0001.
Detection and Quantification of Neurite Outgrowth. Cells were plated and treated in 96-well plates. […] The neurite lengths associated with each treatment were calculated using the neurite definition defined for each specific cell line using the NeuroTrack system (Essen BioScience).

differentiation markers = assay: Western blots of differentiation markers in multiple neuroblastoma cell lines; settings: miRNA mimic
Method: as §1
(§2) Western Blots. […] Protein concentration was determined using the Pierce BCA assay (Thermo Fisher Scientific). […] Bound antibodies were detected with secondary antibodies conjugated with horseradish peroxidase (HRP) visualized by enhanced chemiluminescent (ECL) substrate (Pierce).

CDK4 = assay: Western blot of endogenous CDK4 protein; settings: miRNA overexpression, 4 days
Source text: (§3) FIG. 7A-7F. Validation of CDK4 and STAT3 as direct targets that mediate the differentiation-inducing function of miR-506-3p and miR-124-3p. (A) The predicted interactions between miR-506-3p/miR-124-3p and the target sites in the 3′UTR of STAT3 and CDK4 rnRNAs. The seed sequences are underlined. (SEQ ID NOS: 1, 2, 18, 19, 20, 21) (B-C) Validation of the target sites of miR-506-3p and miR-124-3p in the 3′UTRs of (B) CDK4 and (C) STAT3 by luciferase reporter assay. BE(2)-C cells were co-transfected with the indicated vectors and miRNA mimics or control oligo. After 72 h of transfection, cells were lysed and luciferase activity was measured. […] Cells were transfected as above for 4 days, and protein levels were measured by Western blots. […] Cells were transfected with the indicated oligos, and neurite lengths were measured as above after 4 days transfection. Shown are representative cell images analyzed to define neurites and cell body areas (G) and quantification of neurite length under the indicated treatment conditions (H). **, p<0.01; *** , p<0.001; ****, p<0.0001.
as §2

STAT3 = assay: Western blot of endogenous STAT3 protein; settings: miRNA overexpression, 4 days
Source text: as §3, §2

BE(2)-C cells = assay: High-content screen: detection and quantification of neurite outgrowth; settings: 4 days, dose-dependent, vs 0 nM

## hsa-miR-506-3p: miRNA mimic (Dharmacon), mature sequence UAAGGCACCCUUCUGAGUAGA (SEQ ID NO: 1) (UAAGGCACCCUUCUGAGUAGA(1); as printed in the source, key not given here)
[1]
  Effect on neurite growth in multiple cell lines: most potent effect on neurite growth
Differentiation markers
  Expression of differentiation markers in all the tested cell lines: dramatically induce expression of differentiation markers
CDK4
  Endogenous CDK4 protein expression level: down-regulate
STAT3
  Endogenous STAT3 protein expression level: down-regulate
BE(2)-C cells
  Concentration at which induction of neurite outgrowth is significant: 0.1 nM

— patent publication US10767179B2, “MicroRNA composition for the treatment of neuroblastoma” (THE BOARD OF REGENTS OF THE UNIVERSITY OF TEXAS SYSTEM, priority 2014, dated 2020)
